These molecules were tested against T1, human PAH with the R408W mutation (Homo sapiens, UniProt P00439, R408W) (assay: Cell Based Phenylalanine Flux Assay). Settings: A375 cells expressing human R408W PAH; 24 hrs compound incubation; 13C-Tyrosine by LC-MS; average where tested multiple times; read-out: AC50.
T1 construct: expressed in transfected cells
T1 sequence (P00439 1-452 R408W): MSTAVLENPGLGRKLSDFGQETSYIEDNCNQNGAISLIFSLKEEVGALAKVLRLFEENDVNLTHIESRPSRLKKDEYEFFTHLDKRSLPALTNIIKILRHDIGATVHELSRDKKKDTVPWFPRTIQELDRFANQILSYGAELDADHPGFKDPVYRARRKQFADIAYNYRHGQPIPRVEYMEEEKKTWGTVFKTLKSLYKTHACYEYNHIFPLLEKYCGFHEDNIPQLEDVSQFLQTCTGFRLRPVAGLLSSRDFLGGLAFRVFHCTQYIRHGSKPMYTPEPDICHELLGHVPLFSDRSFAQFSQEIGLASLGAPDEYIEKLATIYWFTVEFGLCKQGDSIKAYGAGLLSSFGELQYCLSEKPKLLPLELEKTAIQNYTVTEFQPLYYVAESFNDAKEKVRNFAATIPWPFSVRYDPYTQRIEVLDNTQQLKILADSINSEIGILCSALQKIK
`CC(C)(C)c1ncoc1C(=O)N1CCc2[nH]cnc2[C@@H]1c1nc2c(F)cccc2s1` [Example 2182, (R)-(4-(tert-butyl)oxazol-5-yl)(4-(4-fluorobenzo[d]thiazol-2-yl)-6,7-dihydro-1H-imidazo[4,5-c]pyridin-5(4H)-yl)methanone] was tested, and the AC50 was 1000 to 5000 nM. In the case of `O=C(c1oc(C2CC2)nc1C(F)(F)F)N1CCc2[nH]cnc2[C@H]1c1nc2c(F)cccc2s1` [Example 2183, (S)-(2-cyclopropyl-4-(trifluoromethyl)oxazol-5-yl)(4-(4-fluorobenzo[d]thiazol-2-yl)-1,4,6,7-tetrahydro-5H-imidazo[4,5-c]pyridin-5-yl)methanone], the AC50 is reported as under 500 nM. For `O=C(c1oc(C2CC2)nc1C(F)(F)F)N1CCc2[nH]cnc2[C@@H]1c1nc2c(F)cccc2s1` [Example 2184, (R)-(2-cyclopropyl-4-(trifluoromethyl)oxazol-5-yl)(4-(4-fluorobenzo[d]thiazol-2-yl)-1,4,6,7-tetrahydro-5H-imidazo[4,5-c]pyridin-5-yl)methanone], the AC50 was under 500 nM. `O=C(c1oc(C2(O)CC2)nc1C(F)(F)F)N1CCc2[nH]cnc2[C@H]1c1nc2c(F)cccc2s1` [Example 2185, (S)-(4-(4-fluorobenzo[d]thiazol-2-yl)-1,4,6,7-tetrahydro-5H-imidazo[4,5-c]pyridin-5-yl)(2-(1-hydroxycyclopropyl)-4-(trifluoromethyl)oxazol-5-yl)methanone] showed an AC50 of under 500 nM. `O=C(c1oc(C2(O)CC2)nc1C(F)(F)F)N1CCc2[nH]cnc2[C@@H]1c1nc2c(F)cccc2s1` [Example 2186, (R)-(4-(4-fluorobenzo[d]thiazol-2-yl)-1,4,6,7-tetrahydro-5H-imidazo[4,5-c]pyridin-5-yl)(2-(1-hydroxycyclopropyl)-4-(trifluoromethyl)oxazol-5-yl)methanone] was tested, and the AC50 was 1000 to 5000 nM. In the case of “((4R)-4-(benzo[d]thiazol-2-yl)-3a,4,6,7,8,8a-hexahydroimidazo[4,5-c]azepin-5(1H)-yl)(4-cyclopropyloxazol-5-yl)methanone [Example 2168]”, the AC50 is reported as 1000 to 5000 nM. With “((4R,7R)-4-(benzo[d]thiazol-2-yl)-7-methyl-6,7-dihydro-1H-imidazo[4,5- [Example 1587]” the AC50 was 1000 to 5000 nM. For “(R)-2-((4-(6-bromo-1H-benzo[d]imidazol-2-yl)-6,7-dihydro-1H-imidazo[4,5-c]pyridin-5(4H)-yl)methyl)thiazole [Example 968]”, the AC50 was 1000 to 5000 nM. In the case of “(R)-2-((4-(6-fluoro-1H-benzo[d]imidazol-2-yl)-6,7-dihydro-1H-imidazo[4,5-c]pyridin-5(4H)-yl)methyl)thiazole [Example 972]”, the AC50 is reported as over 5000 nM. Molecule “(R)-(4-(benzo[d]thiazol-2-yl)-6,7-dihydro-1H-imidazo[4,5-c]pyridin-5(4H)-yl)(2-(1-methyl-3-(trifluoromethyl)-1H-pyrazol-4-yl)thiazol-5-yl)methanone [Example 1390]” has an AC50 of 1000 to 5000 nM. “(R)-(4-(benzo[d]thiazol-2-yl)-6,7-dihydro-1H-imidazo[4,5-c]pyridin-5(4H)-yl)(6-bromopyrazolo[1,5-a]pyridin-3-yl)methanone [Example 1046]” gave an AC50 of 1000 to 5000 nM. Molecule “(R)-(4-bromothiazol-5-yl)(4-(4-fluorobenzo[d]thiazol-2-yl)-6,7-dihydro-1H-imidazo[4,5-c]pyridin-5(4H)-yl)methanone [Example 1618]” has an AC50 of 500 to 1000 nM. For “(R)-(5-(difluoromethyl)-1-methyl-1H-pyrazol-4-yl)(4-(4-fluorobenzo[d]thiazol-2-yl)-6,7-dihydro-1H-imidazo[4,5-c]pyridin-5(4H)-yl)methanone [Example 1744]”, the AC50 was 1000 to 5000 nM. With “(R,Z)-1-(4-(1H-benzo[d]imidazol-2-yl)-6,7-dihydro-1H-imidazo[4,5-c]pyridin-5(4H)-yl)-2-(5-(prop-1-en-1-yl)-4-vinylthiazol-2-yl)ethanone [Example 904]” the AC50 was over 5000 nM. Molecule “(S)-(4-(benzo[d]thiazol-2-yl)-6,7-dihydro-1H)-imidazo[4,5-c]pyridin-5(4H)-yl)(6-bromopyrazolo[1,5-a]pyridin-3-yl)methanone [Example 1045]” has an AC50 of 500 to 1000 nM. Molecule “(S)-(4-bromothiazol-5-yl)(4-(4- fluorobenzo[d]thiazol-2-yl)-6,7-dihydro-1H)- imidazo[4,5-c]pyridin-5(4H)-yl)methanone [Example 1617]” has an AC50 of under 500 nM.

— patent US20250171438A1 (Agios Pharmaceuticals, Inc., priority 2022, published 2025)
